Results as given in patent EP1289557B1, “CANCER TREATMENT COMPOSITION CONTAINING AN ANTI-NEOPLASTIC AGENT AND A PDE4 INHIBITOR” (GLAXO GROUP LIMITED, priority 2000, dated 2001).

Experiments:
A549 (lung) = assay: Tumor cell growth (sulforhodamine B) after chemoprotectant regimen and paclitaxel; assay type: cell-based, human; conditions: forskolin (100 µM) plus PDE4 inhibitor (1 µM), then paclitaxel (100 nM); cell line not completely inhibited by paclitaxel
Experimental: (§1) The human tumor cell lines HT-29 (colon: ATCC# HTB 38), RKO (colon, ATCC# HTB 130), lines A549 (lung, ATCC# CCL 185), and MDA468 (breast, ATCC# HTB 132) were obtained from the American Type Culture Collection and maintained in DMEM containing 10% FBS. Tumor cells were grown at 37°C in a humidified atmosphere of 5% CO2. Adherent tumor cells were seeded into 96 well plates and incubated for six hours to allow for attachment. After six hours the chemoprotectants forskolin (100 µM) plus rolipram (1 µM) or forskolin (100 µM) plus Ariflo™ (1µM) were added. After overnight incubation, paclitaxel (100 nM) was added for 24 hours. Cells were then washed free of chemoprotectants and paclitaxel, placed in fresh media, and grown for 5 days. Growth was measured daily using sulforhodamine B (Skehan P. et. al., (1990), J. Nat'l Cancer Inst 82:1107-12). The results are depicted in Figure 8.

HT-29 (colon) = assay: as above; assay type: cell-based, human; conditions: forskolin (100 µM) plus PDE4 inhibitor (1 µM), then paclitaxel (100 nM) 24 hours; versus DMSO pretreatment
Experimental: as §1

RKO (colon) = assay: as above; assay type: cell-based, human; conditions: forskolin (100 µM) plus PDE4 inhibitor (1 µM), then paclitaxel (100 nM) 24 hours; versus DMSO pretreatment
Experimental: as §1

[1] = Cell based assays utilized herein, PDE4 inhibitor used alone; conditions: without forskolin
[2] = system: expanded CD34^+ stem cells; assay: Flow cytometric (FACS) evaluation of percent live cells after chemoprotectant pretreatment and paclitaxel; assay type: cell-based, Human; conditions: pretreatment rolipram (1µM) plus Forskolin (100 µM) 24 hours
Experimental: Prevention of myelosuppression was shown by protection of neutrophil progenitors by PDE4 inhibitors from the cytotoxic effects of cancer chemotherapeutic agents. In Examples 2-7 a variety of chemically distinct PDE4 inhibitors were tested for their ability to protect neutrophil progenitors. Three methods, more completely described in the following examples, were utilized for a determination of cell survival and ability to produce daughter cells of primary human neutrophil progenitors: (1) a FACS assay which determined the percent of live cells by size and granularity; (2) a colony forming assay which measured the number of CFU-GM progenitors (a specific early stage neutrophil progenitor); and (3) a cell-based EUSA which measured CD15 antigen the value of which was proportional to the number of neutrophil lineage cells. This assay allows evaluation of neutrophil progenitors (cells that can divide and produce daughter neutrophil-lineage cells) at multiple stages of differentiation.
Human bone marrow samples were collected from presumed healthy human donors following informed consent through an agreement with Duke University Medical Center, Durham, North Carolina. Mononuclear cells were isolated using a 1.077 Ficoll-Paque gradient according to the published procedure (Dornsife, RE et al., Antimicrob Agents Chemother, 35: 322-328, (1991)) and were suspended in HBSS with 2% FBS at a concentration of 5 X 10^7 cells/ml. CD34^+ stem cells were isolated by "StemSep™ CD34^+ stem cell selection kit" by following the instructions from the manufacturer (Stem Cell Technologies). Cells were adjusted to 1 x 10^6 cells/ml in complete growth media and maintained in a humidified, 5% CO2 incubator. The complete growth media was IMDM supplemented with 20% FBS, 1% penicillin-streptomycin antibiotics, the recombinant human cytokines (Biosource)Flt-3/Flk-2 ligand (50 ng/ml), stem cell factor (50 ng/ml), interleukin-3 (40ng/ml), and G-CSF (10 ng/ml). The cells were maintained at a density of between 0.5 and 3 x 10^5 cells/ml. The CD34+ stem cells were expanded in culture over an average range of 11 to 23 days. Five groups of expanded CD34+ cells were treated with rolipram (1µM), plus Forskolin (100 µM), an adenylate cyclase activator, for 24 hours and five groups of expanded CD34+ cells were treated with DMSO for 24 hours. After 24 hours, to the 5 sets of cells that were treated with DMSO and 5 groups of cells treated with rolipram plus forskolin, paclitaxel was added to give final concentrations of 0, 30, 100, 300, and 600 nM of paclitaxel respectively and incubated for an additional 24 hours. After the 48 hours of treatment, the cells were counted, washed and re-suspended in PBS with 2% FBS. […] The prepared cells were analyzed on a BD FACSort flow cytometer. […]

SMILES	effect of chemoprotectant regimen on inhibition of tumour cell growth by paclitaxel (A549 (lung))	effect of chemoprotectant regimen on inhibition of tumour cell growth by paclitaxel (HT-29 (colon))	effect of chemoprotectant regimen on inhibition of tumour cell growth by paclitaxel (RKO (colon))	protective effect when used alone [1]	surviving cell fractions ([2]; then paclitaxel 30nM 24 hours, DMSO pretreatment gave 45%) [%]	surviving cell fractions ([2]; then paclitaxel 100nM 24 hours, DMSO pretreatment gave 27%) [%]	surviving cell fractions ([2]; then paclitaxel 300nM 24 hours, DMSO pretreatment gave 23%) [%]	surviving cell fractions ([2]; then paclitaxel 600nM 24 hours, DMSO pretreatment gave 18%) [%]
COc1ccc([C@]2(C#N)CC[C@@H](C(=O)O)CC2)cc1OC1CCCC1 [Ariflo™, cis-4-cyano-4-[3-(cyclopentyloxy)-4-methoxyphenyl]cyclohexane-1-carboxylic acid]	no additional protection	no effect on the inhibition of tumour cell growth	no effect on the inhibition of tumour cell growth	–	–	–	–	–
COc1ccc(C2CNC(=O)C2)cc1OC1CCCC1 (centres unmarked) [Rolipram, rolipram]	no additional protection	no effect on the inhibition of tumour cell growth	no effect on the inhibition of tumour cell growth	little protective effect	86	81	63	59
